# Test results published in PMC12006963, “Application of Deuterium in an M1 Positive Allosteric Modulator Back-Up Program: The Discovery of VU6045422” (ACS Chemical Neuroscience, 2025).
# What was measured:
# [1] = In vivo IV/PO pharmacokinetics, rat; conditions: rat (SD), dose iv/po mg/kg: 1 1/3, 3 1/10, 5 1/10; for clearance / Vd / half-life: Sprague-Dawley, plasma, 1 mg/kg; for clearance: read-out: CLp; for Vd: read-out: Vss; for half-life: read-out: elimination t1/2 (converted)
# [2] = Plasma protein binding, equilibrium dialysis (human); type: in vitro ADME; conditions: pH 7.4, read-out: fu,plasma
# Experimental: page 5: Drug Metabolism Methods: In vitro Plasma protein binding and Brain homogenate binding: Determination of fraction unbound (f u) in plasma was conducted in vitro via equilibrium dialysis using HTDialysis (HTD) membrane plates. The top half of the plate was filled with 100 uL of Dubelco’s Phosphate Buffered Saline, pH 7.4 (DPBS). Compounds were diluted into plasma from each species (5 µM final concentration), which was aliquoted in triplicate to the ‘bottom half’ of the prepared HTD plate wells. The HTD plate was sealed and incubated for 6 hours at 37 °C. Following incubation, each well (both top and bottom halves) were transferred (20 µL) to the corresponding wells of a 96- shallow-well (V-bottom) plate. The daughter plates were then matrix-matched (DPBS side wells received equal volume of plasma, and plasma side wells received equal volume of DPBS), and extraction solution (120 µL; acetonitrile containing 50 nM carbamazepine as IS) was added to all wells of both daughter plates to precipitate protein and extract test article. The plates were then sealed and centrifuged (3500 rcf) for 10 minutes at ambient temperature. Supernatant (60 µL) from each well of the daughter plates was then transferred to the corresponding wells of new daughter plates (96-shallow-well, V bottom) containing water (Milli-Q, 60 µL/well), and the plates were sealed in preparation for LC-MS/MS analysis (see LC-MS/MS analysis method below). The unbound fraction (f u) was calculated following the equation below, and mean values for each species were calculated from 3 replicates. […] Fraction unbound for both plasma and brain samples was determined using Equation 4. f = Concbuffer u Concplasma Equation 4 Determination of fraction unbound in plasma. […]
# [3] = Predicted hepatic clearance, hepatic microsomes (cyno); type: in vitro ADME
# Brain homogenate binding = type: in vitro ADME; conditions: pH 7.4; rat brain homogenate; read-out: fu,brain
# Experimental: Plasma protein binding and Brain homogenate binding: Determination of fraction unbound (f u) in plasma was conducted in vitro via equilibrium dialysis using HTDialysis (HTD) membrane plates. The top half of the plate was filled with 100 uL of Dubelco’s Phosphate Buffered Saline, pH 7.4 (DPBS). Compounds were diluted into plasma from each species (5 µM final concentration), which was aliquoted in triplicate to the ‘bottom half’ of the prepared HTD plate wells. The HTD plate was sealed and incubated for 6 hours at 37 °C. Following incubation, each well (both top and bottom halves) were transferred (20 µL) to the corresponding wells of a 96-shallow-well (V-bottom) plate. The daughter plates were then matrix-matched (DPBS side wells received equal volume of plasma, and plasma side wells received equal volume of DPBS), and extraction solution (120 µL; acetonitrile containing 50 nM carbamazepine as IS) was added to all wells of both daughter plates to precipitate protein and extract test article. The plates were then sealed and centrifuged (3500 rcf) for 10 minutes at ambient temperature. […]
# The unbound fraction (f u) was calculated following the equation below, and mean values for each species were calculated from 3 replicates.
# A similar approach was used to determine the degree of brain homogenate binding, which employed the same methodology and procedure with the following modifications: 1) a final compound concentration of 1 μM was used, 2) naïve rat brains were homogenized in DPBS (1:3 composition of brain: DPBS, w/w) using a Mini-Bead Beater™ machine in order to obtain brain homogenate, which was then treated in the same manner as the plasma samples in the previously described plasma protein binding assay. Fraction unbound for both plasma and brain samples was determined using Equation 4. […]
# The diluted fraction unbound (fu2) in brain was calculated in the same manner by using brain homogenate rather than plasma. Undiluted fraction unbound for the brain was calculated using […]
Compound,clearance [1] [mL/min/kg],Vd [1] [L/kg],half-life [1] [h],F (%) po [1] [%],"fraction unbound at 6 h, 5 µM [2]",Predicted CLhep [3] [mL/min/kg],"fraction unbound at 6 h, 1 µM (Brain homogenate binding)"
[2H]C1([2H])c2ncccc2C(=O)N1Cc1c(F)cc(-c2cccc3nn(C)cc23)cc1F [compound 3],5.5,1.4,3,100,0.051,27.4,0.031
Cn1cc2c(-c3cc(F)c(CN4Cc5ncccc5C4=O)c(F)c3)cccc2n1 [compound 1],3,0.67,3,93,0.034,5.6,0.04
[2H]C1([2H])c2ncccc2C(=O)N1Cc1c(F)cc(-c2cccc3nn(C([2H])([2H])[2H])cc23)cc1F [compound 5],4.8,1.1,3.6,100,0.036,27.5,0.036
